Data set [1] concerns the target 3',5'-cyclic-AMP phosphodiesterase 4D (Homo sapiens) (UniProt Q08499). Briefly: Inhibition of recombinant human PDE4D catalytic domain at 1 uM using [3H]cAMP as substrate measured after 30 mins by scintillation proximity assay relative to control.
In data set [2] the test system is Mus musculus. In words: Protection against imiquimod-induced skin inflammation in BALB/c mouse psoriasis model assessed as decrease in skin scaling at 25 mg/kg, po administered once daily for 7 days. Format: functional, organism-based.
Data set [3] in a line: Permeability across basal to apical side in human Caco2 cells assessed as drug recovery measured after 95 mins by LC-MS/MS analysis. In kind it is ADME, cell-based. The following applies: Caco-2, read-out: Drug recovery. Background: Caco-2 cells form a polarised layer with tight junctions and transporters.
Data set [4] relates to Mus musculus. Briefly: Protection against imiquimod-induced skin inflammation in BALB/c mouse psoriasis model assessed as decrease in lesion thickness at 25 mg/kg, po administered once daily for 7 days. Format: functional, organism-based.
The nature of data set [5]: Permeability across apical to basal side in human Caco2 cells assessed as drug recovery measured after 95 mins by LC-MS/MS analysis. In kind it is ADME, cell-based. The settings on record: Caco-2, read-out: Drug recovery.
Data set [6] deals with Mus musculus. In words: Protection against imiquimod-induced skin inflammation in BALB/c mouse psoriasis model assessed as decrease in cumulative psoriasis score at 25 mg/kg, po administered once daily for 7 days. Format: functional, organism-based.
Data set [7] deals with Mus musculus. Briefly: Protection against imiquimod-induced skin inflammation in BALB/c mouse psoriasis model assessed as decrease in skin erythema at 25 mg/kg, po administered once daily for 7 days. In kind it is functional, organism-based.
Data set [8] can be described thus: Apparent permeability across basal to apical side in human Caco2 cells measured after 95 mins by LC-MS/MS analysis. In kind it is ADME, cell-based. The settings on record: Caco-2.
Data set [9] in a line: Apparent permeability across apical to basal side in human Caco2 cells measured after 95 mins by LC-MS/MS analysis. The settings on record: Caco-2. In kind it is ADME, cell-based.
For data set [10], the target named is 3',5'-cyclic-AMP phosphodiesterase 4D (Homo sapiens) (UniProt Q08499). In words: Inhibition of recombinant human PDE4D catalytic domain at 10 uM using [3H]cAMP as substrate measured after 30 mins by scintillation proximity assay relative to control. A general note: Scintillation proximity formats need no separation of bound from free tracer.
Sequence of 3',5'-cyclic-AMP phosphodiesterase 4D (Homo sapiens) (Q08499 whole entry, the tested form may be a part): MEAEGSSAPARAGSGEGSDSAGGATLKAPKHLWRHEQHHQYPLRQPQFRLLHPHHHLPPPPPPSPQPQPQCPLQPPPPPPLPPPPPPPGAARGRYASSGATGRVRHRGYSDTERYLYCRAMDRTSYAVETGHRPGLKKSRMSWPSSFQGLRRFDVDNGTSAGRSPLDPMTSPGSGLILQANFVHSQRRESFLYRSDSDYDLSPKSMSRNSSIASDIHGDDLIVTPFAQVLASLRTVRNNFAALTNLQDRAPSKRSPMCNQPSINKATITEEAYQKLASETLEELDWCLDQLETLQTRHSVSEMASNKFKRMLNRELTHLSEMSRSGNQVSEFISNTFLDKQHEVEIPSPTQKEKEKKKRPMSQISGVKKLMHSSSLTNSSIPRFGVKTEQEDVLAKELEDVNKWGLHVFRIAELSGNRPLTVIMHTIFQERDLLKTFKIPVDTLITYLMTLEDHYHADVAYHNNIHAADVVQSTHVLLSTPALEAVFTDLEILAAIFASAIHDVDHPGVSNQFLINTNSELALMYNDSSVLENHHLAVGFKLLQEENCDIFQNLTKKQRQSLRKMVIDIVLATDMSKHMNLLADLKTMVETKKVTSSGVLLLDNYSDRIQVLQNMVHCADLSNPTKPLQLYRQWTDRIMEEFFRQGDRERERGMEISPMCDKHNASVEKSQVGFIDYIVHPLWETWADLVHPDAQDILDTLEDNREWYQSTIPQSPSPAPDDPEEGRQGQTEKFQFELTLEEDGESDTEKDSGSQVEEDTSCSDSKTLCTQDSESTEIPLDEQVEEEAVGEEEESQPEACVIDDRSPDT
For data set [11], the target named is Phosphodiesterase 4 (Homo sapiens) (UniProt P27815+Q08499+Q07343+Q08493). In words: Inhibition of PDE4 in human PBMC assessed as reduction in LPS-stimulated TNFalpha production at 10 uM preincubated for 1 hr followed by LPS stimulation and measured after 18 to 20 hrs by ELISA relative to control. In kind it is protein assay.
Data set [12] is described as follows: Half life in Sprague-Dawley rat at 25 mg/kg, po by LC-MS/MS analysis. Format: ADME, organism-based. The settings on record: in vivo.
The nature of data set [13]: MRT in Sprague-Dawley rat at 10 mg/kg, iv by LC-MS/MS analysis. Format: ADME, organism-based. The settings on record: in vivo.
Data set [14] is described as follows: AUC (0 to t) in Sprague-Dawley rat at 10 mg/kg, iv by LC-MS/MS analysis. In kind it is ADME, organism-based. The following applies: in vivo.
Data set [15] deals with Mus musculus. Briefly: Antiinflammatory activity in specific pathogen free BALB/c mouse assessed as inhibition of LPS-induced TNFalpha secretion in spleen at 1 mg/kg, po administered as single dose pretreated for 1.5 hrs followed by LPS stimulation and measured after 2 hrs by ELISA. Format: functional, organism-based.
Data set [16] has as its system Mus musculus. Briefly: Protection against imiquimod-induced skin inflammation in BALB/c mouse psoriasis model assessed as decrease in skin scaling at 62.5 mg administered topically as cream formulation once daily for 7 days. Format: functional, organism-based.
Data set [17] is described as follows: Volume of distribution at steady state in Sprague-Dawley rat at 10 mg/kg, iv by LC-MS/MS analysis. In kind it is ADME, organism-based. The following applies: in vivo, read-out: Vdss.
The subject of data set [18] is Mus musculus. In words: Protection against imiquimod-induced skin inflammation in BALB/c mouse psoriasis model assessed as decrease in skin erythema at 62.5 mg administered topically as cream formulation once daily for 7 days. In kind it is functional, organism-based.
The nature of data set [19]: Oral bioavailability in Sprague-Dawley rat at 25 mg/kg by LC-MS/MS analysis. Format: ADME, organism-based. The settings on record: in vivo.
The subject of data set [20] is Mus musculus. Briefly: Antiinflammatory activity in specific pathogen free BALB/c mouse assessed as inhibition of LPS-induced TNFalpha secretion in serum at 1 mg/kg, po administered as single dose pretreated for 1.5 hrs followed by LPS stimulation and measured after 2 hrs by ELISA. Format: functional, organism-based. In general terms: ELISA stands for enzyme-linked immunosorbent assay.

Data set [21] in a line: Cmax in Sprague-Dawley rat at 25 mg/kg, po by LC-MS/MS analysis. Format: ADME, organism-based. The arrangement: dose 25 mg/kg, route oral. The settings on record: in vivo.
Data set [22] in a line: MRT in Sprague-Dawley rat at 25 mg/kg, po by LC-MS/MS analysis. In kind it is ADME, organism-based. The following applies: in vivo.
Data set [23] can be described thus: Tmax in Sprague-Dawley rat at 25 mg/kg, po by LC-MS/MS analysis. In kind it is ADME, organism-based. The following applies: in vivo.
A short description of data set [24]: AUC (0 to t) in Sprague-Dawley rat at 25 mg/kg, po by LC-MS/MS analysis. In kind it is ADME, organism-based. The following applies: in vivo.
In data set [25] the test system is Mus musculus. Briefly: Antiinflammatory activity in specific pathogen free BALB/c mouse assessed as inhibition of LPS-induced IL6 secretion in spleen at 1 mg/kg, po administered as single dose pretreated for 1.5 hrs followed by LPS stimulation and measured after 2 hrs by ELISA. In kind it is functional, organism-based.
The nature of data set [26]: AUC (0 to infinity) in Sprague-Dawley rat at 25 mg/kg, po by LC-MS/MS analysis. The arrangement: dose 25 mg/kg, route oral, time infinity. The following applies: in vivo. In kind it is ADME, organism-based.
Data set [27] is described as follows: Half life in Sprague-Dawley rat at 10 mg/kg, iv by LC-MS/MS analysis. In kind it is ADME, organism-based. The settings on record: in vivo.
Data set [28] deals with Mus musculus. In words: Antiinflammatory activity in specific pathogen free BALB/c mouse assessed as inhibition of LPS-induced IL6 secretion in serum at 1 mg/kg, po administered as single dose pretreated for 1.5 hrs followed by LPS stimulation and measured after 2 hrs by ELISA. In kind it is functional, organism-based.
Data set [29] deals with Mus musculus. In words: Antiinflammatory activity in specific pathogen free BALB/c mouse assessed as inhibition of LPS-induced IL12p40 secretion in serum at 1 mg/kg, po administered as single dose pretreated for 1.5 hrs followed by LPS stimulation and measured after 2 hrs by ELISA. In kind it is functional, organism-based.
Data set [30] can be described thus: Clearance in Sprague-Dawley rat at 10 mg/kg, iv by LC-MS/MS analysis. In kind it is ADME, organism-based. The following applies: in vivo.
Data set [31] relates to Mus musculus. In words: Protection against imiquimod-induced skin inflammation in BALB/c mouse psoriasis model assessed as decrease in lesion thickness at 62.5 mg administered topically as cream formulation once daily for 7 days. Format: functional, organism-based.
The nature of data set [32]: AUC (0 to infinity) in Sprague-Dawley rat at 10 mg/kg, iv by LC-MS/MS analysis. Format: ADME, organism-based. The arrangement: dose 10 mg/kg, route intravenous, time infinity. The following applies: in vivo.
Data set [33] deals with Mus musculus. Briefly: Antiinflammatory activity in specific pathogen free BALB/c mouse assessed as inhibition of LPS-induced IL12p40 secretion in spleen at 1 mg/kg, po administered as single dose pretreated for 1.5 hrs followed by LPS stimulation and measured after 2 hrs by ELISA. Format: functional, organism-based.

SMILES strings stand for the structures. Calls of active or inactive are those of the source. No cut-off for these calls is given here.

On to `COc1cc2c(cc1OC)C(CCc1c[nH]c3ccccc13)N(C(=O)c1ccncc1)CC2` (racemic), for which the inhibition in data set [1] worked out at 30.7%.

As for `CCOc1cc([C@@H](CS(C)(=O)=O)N2C(=O)c3cccc(NC(C)=O)c3C2=O)ccc1OC`, the outcome in the data set on Mus musculus [2], in the data set on Mus musculus [4], in the data set with Mus musculus [6] and in the data set on Mus musculus [7] was Active. Further, the recovery at 95 min in data set [3] stood at 92.1%; in [5] it was 96.7%. Moreover, the Papp B→A at 95 min in data set [8] is 29 ×10⁻⁶ cm/s. Further, in [9], the Papp A→B at 95 min was 14.9 ×10⁻⁶ cm/s.

Consider `COc1cc2c(cc1OC)C(CCc1c[nH]c3ccccc13)N(CC1CCOCC1)CC2` (racemic), for which the inhibition was 34.6% in [10] and 36.7% in data set [11].

For `COc1cc2c(cc1OC1CCCC1)[C@H](CCc1c[nH]c3cc(C)ccc13)N(C=O)CC2`, in data set [1], the inhibition came to 24%.

As to `COCCN1CCc2cc(OC)c(OC)cc2C1CCc1c[nH]c2ccccc12` (racemic), the results for the inhibition in [1] and in [11] were 19.2% and 25.7%, respectively.

As for `COc1cc2c(cc1OC)C(CCc1c[nH]c3ccccc13)N(C(=O)C1CCOCC1)CC2` (racemic), in data set [1], the inhibition stood at 16.4%.

As for `COc1cc2c(cc1OC)[C@H](CCc1c[nH]c3cc(C)ccc13)N(C=O)CC2`, the half-life in data set [12] is 56.4 min; in [27], 36 min. Also, the figures for the MRT in data set [13] and in data set [22] were 55.2 min and 150 min, respectively. The area under the curve AUC(0-t) was determined as 6210 ng·h/mL in data set [14] and 8390 ng·h/mL in data set [24]. In addition, the outcome in the data set on Mus musculus [2], in the data set with Mus musculus [4], in the data set with Mus musculus [15], in the data set with Mus musculus [16], with Mus musculus [18] and with Mus musculus [20] was Active. Moreover, the result in the data set on Mus musculus [6], with Mus musculus [7], with Mus musculus [25], with Mus musculus [28], in the data set on Mus musculus [29] and in the data set with Mus musculus [31] was Active. In addition, the outcome in the data set on Mus musculus [33] was Active. The values for the recovery at 95 min in data set [3] and in data set [5] were 96.8% and 92.3%, respectively. In addition, the Vd in [17] amounted to 1.56 L/kg. This compound yielded a bioavailability in [19] of 68.3%. In data set [21], this compound came in with a Cmax of 2450 ng/mL. In data set [8], the Papp B→A at 95 min is 19.9 ×10⁻⁶ cm/s. The Tmax in data set [23] stood at 79.8 min. Further, the AUC(0-inf) was 8460 ng·h/mL in data set [26] and 6280 ng·h/mL in [32]. Also, the apparent permeability from apical to basolateral (Papp A→B) at 95 min in [9] came to 18.4 ×10⁻⁶ cm/s. Further, in [30], the clearance is 28.3 mL/min/kg.

For the compound `COc1cc2c(cc1OC)C(CCc1c[nH]c3ccccc13)N(CC(F)(F)F)CC2` (racemic), in data set [1], the inhibition came to 19.5%.

In the case of `COC(=O)CN1CCc2cc(OC)c(OC)cc2C1CCc1c[nH]c2ccccc12` (racemic), the inhibition in [1] stood at 39.1%.

What is called inhibition is the change of the read-out against control, counted positive when it falls. One may read the Papp B→A as how fast a substance crosses the layer from the basolateral side. As usually defined, the Papp A→B is how fast a substance crosses the layer from the apical side. In general, half-life refers to the time in which the quantity being followed falls by half. For orientation: MRT means a mean duration of stay, worked out from the concentration-time curve. One may read the AUC(0-t) as the area under the concentration-time curve up to a stated or last time point. The low end stands for less exposure, the high end for more exposure. What is called bioavailability is the share of a dose that reaches the circulation, judged against a reference dose that is usually intravenous. A higher bioavailability goes with much systemic uptake. The Cmax is the maximum level reached in the sampled fluid or tissue. Usually Tmax stands for the time at which the peak concentration occurs. For orientation: AUC(0-inf) means total exposure, with the tail of the curve extrapolated. Low values mean low exposure, high ones high exposure. The term clearance denotes a measure of how efficiently the substance is removed, as volume per time. A higher clearance goes with efficient removal.
